Results from patent US20240335395A1, “COMPOSITIONS AND METHODS FOR PREVENTING AND/OR TREATING DISEASE ASSOCIATED WITH IL-23 EXPRESSION” (ALLSPIM, priority 2021, published 2024).

Experiments:
IL-23 [1] = test: IL-23 production (ELISA of supernatant) in LPS-stimulated THP-1 cell culture, Examples 1 and 8; format: cell-based, human
Method: The THP-1 cell line (TIB-202) was obtained from the American Type Culture Collection (ATCC, USA), grown in RPMI 1640 culture medium (Gibco) supplemented with 10% fetal bovine serum (Gibco, UK), 50 U/mL penicillin-streptomycin (Gibco), and 0.05 mM 2-Mercaptoethanol (Gibco). Cultured cells were plated into culture plates in appropriate volumes with a cell density of 500,000 cells/mL.
PCR was performed in duplicate using SYBR Green qPCR master mix (Takara Biomedical Technology Co., Ltd, Dalian, China) on an ABI 7500 Real-Time PCR System (Thermo, USA). The cycling program was as follows: denaturation at 95° C. for 15 s, 40 cycles of 95° C. for 15 s and extension at 60° C. for 60 s, followed by melt curve generation. The ΔΔCT method was used to quantify relative mRNA levels as described in User Bulletin #2 for the ABI PRISM 7700 Sequence Detection System (Applied Biosystems, 2001). The primer sequences used in this study are 5′-[…]-3′ (forward), 5′-[…]-3′ (reverse) for human IL-23p19 (SEQ ID NOs: 4 and 5, respectively); and 5′-ACAGTCCATGCCATCACTG-3′ (forward) and 5′-AGTAGAGGCAGGGATGATG-3′ for human GAPDH as a reference (SEQ ID NOs: 6 and 7, respectively). 24 hours after culture and treatments, supernatants were collected and IL-23 levels measured using the IL-23 Human Uncoated ELISA Kit (ThermoFisher Scientific Inc., USA) according to the manufacturer's instructions. A Varioskan LUX microplate reader (Thermo Fisher, USA) was used for the assay and 4-parameter logistic regression was used for data analysis. Two duplicates per sample were performed and results were averaged.
The anti-IL-23 activity of 2,4-D was compared with the commercially prescribed nonsteroidal anti-inflammatory drugs (NSAIDs:[…], Ibuprofen, and Aspirin) in the LPS-stimulated THP-1 cell culture system described above (Example 1)).

IL-23 [2] = test: IL-23 production (ELISA) in LPS-stimulated THP-1 cells, 2,4-D versus other chalcones, Example 2; format: cell-based, human; conditions: LPS-stimulated THP-1, 24 h
Excerpt: Molecules tested. Natural 2,4-D, isolated and purified from Chloranthus spicatus (purity HPLC≥98%, Cat. No.: 129742-43-2), was purchased from BOC Science (Shirley, NY). Synthetic 2,4-D (purity HPLC≥98%) was obtained from YIWEI Biotech (Shanghai, China). 2′-hydroxychalcone (2′-HC, purity HPLC≥98%, Cat. No.: 42224-53-3), 4-hydroxychlcone (4-HC, purity HPLC≥98%, Cat. No.: 20426-12-4), 2′,2-dihydroxychalcone (2′,2-DHC, purity HPLC≥98%, Cat. No.: IDF00045_ALDRICH), 2′,3-dihydroxychalcone (2′,3-DHC, purity HPLC≥98%, Cat No.: IDF00047_ALDRICH), 2′,4-dihydroxychalcone (2′,4-DHC, purity HPLC≥98%, Cat. No.: PH011685_ALDRICH), 2′,5′-dihydroxychalcone (2′,5′-DHC, purity HPLC≥98%, No.: IDF00046-1G), and 2′,4′,4-trihydroxychalcone (2′,4′4-THC, purity HPLC≥98%, No.: 38986_SIAL) were purchased from Sigma. 2′,4′-dihydroxychalcone (2′,4′-DHC, purity HPLC≥98%, Cat. No. AB151736) was purchased from abcr GmbH (Karlsruhe, Germany). Isobavachalcone (IBC), 4′-hydroxy-2′6′-dimethoxychalcone (HMC), 2-trifluoromethyl-2′-methoxychalcone (TFM) and Hydroxysafflor yellow A (HYA) were also tested.
Cell culture. THP-1 cells were cultured in RPMI 1640 culture medium (Gibco) supplemented with 10% fetal bovine serum (FBS; Gibco, UK.), 0.05 mM 2-mercaptoethanol, and 1% penicillin/streptomycin. Cells were used in exponential growth phase, with culture medium being replaced with fresh medium 1 day prior to the experiment. The following day, THP-1 cells were plated into 24-well culture plates with a cell density about 800,000 cells/mL and 2 mL per well. 10 ng/mL LPS was used to stimulate the THP-1 cells. RPMI 1640 medium containing 10% FBS and 1% P/S was used as a normal control (NC). 10 mM stock solutions of compounds in DMSO were diluted to 20 μM with complete culture medium just before use. Experiments were performed in quadruplicate.
Enzyme linked immune-sorbent assay (ELISA). At 24 hours, after centrifugation at 300 g for 10 min., 0.5 mL of supernatant was collected and stored at −80° C. until use. IL-23 levels were determined in culture supernatants as described in Example 1.

TNF-alpha = test: MSU-induced TNF-alpha in knee joint tissue (multiplex microassay); format: in vivo, mouse; conditions: 2,4-D 100 mg/kg, CLC 1 mg/kg, DEX 0.5 mg/kg
Method: (§1) Mice (six per group) were treated with 2,4-D (100 mg/kg or 20 mg/kg, i.p.), CLC (1 mg/kg or 0.2 mg/kg, i.p.), DEX (0.5 mg/kg or 0.1 mg/kg, i.p.), or vehicle (20% polyoxyethylenesorbitan monooleate (Tween 80) plus PBS) 30 min before intra-articular stimulus with MSU (100 μg/10 μL, i.a.). Six mice with intra-articular injection with PBS alone served as a negative control.
(§2) Induction of MSU-Induced Knee Joint Inflammation. Male ICR (CD-1) mice (35-45 g, 10-12 weeks) were purchased from VitalRiver Inc (Beijing, China) and were kept in an animal care facility under controlled temperature of 21±1° C., humidity, and on a light/dark cycle, with ad libitum access to water and standard laboratory chow diet. Animal care and handling procedures were approved by the Animal Ethics Committee of GZUCM (Guangzhou University of Chinese Medicine). All efforts were made to minimize animal suffering and to reduce the number of animals used. Joint inflammation was induced by the intra-articular (i.a.) administration of MSU (200 μg/20 μl) into the right and left knee joints of mice under inhaled 3% isoflurane anesthesia. Control animals received an injection (i.a.) of sterile PBS (20 μL).
(§3) Cytokine Measurement. Mice were anesthetized and sacrificed. Knee joints were collected and frozen in liquid nitrogen. Samples were then homogenized in 500 μl of buffer containing protease inhibitors, centrifuged (3600 rpm, 4° C., 15 min) and supernatants were used to determine Th1/Th2/Th17 cytokine levels using a multiplex microassay (Qantibody® mouse TH17 Array 1 kit, Cat. No.: QAM-TH17-1; RayBiotech, Norcross, GA). Results were expressed as picograms (pg) of cytokine/mg of tissue.
(§4) Statistical Analysis. […] For in vitro experiments, microassays were performed in quadruplicate. p<0.05 was considered significant (*p<0.05, **p<0.01, ***p<0.001).

IL-10 = test: MSU-induced IL-10 in knee joint tissue (multiplex microassay); format: in vivo, mouse; conditions: CLC 1 mg/kg
Method: as §1, §2, §3, §4

[3] = system: MSU-induced leukocyte recruitment; test: MSU-induced leukocyte recruitment to the synovial cavity of knee joint; format: in vivo, mouse; conditions: 20 h; 2,4-D 100 mg/kg, CLC 1 mg/kg, DEX 0.5 mg/kg
Method: as §1, with “2,4-D, isolated and purified from Chloranthus spicatus (purity≥98%), was purchased from BOC Science (Shirley, NY). Colchicine (CLC) (purity≥96%) and dexamethasone (DEX) (purity≥98%) were purchased from Sigma. Mice” for “Mice”
as §2
Histopathological Analysis. Knee joint was collected 20 h after MSU injection, fixed with 10% paraformaldehyde in PBS, and then decalcified for 10 days with EDTA and embedded in paraffin for histological analysis. […] Results are expressed as leukocytes infiltrate (cell/field) counted at the inflammatory foci within synovial cavity as indicative of synovitis. […]
Statistical Analysis. Data were analyzed using GraphPad Prism statistical software (GraphPad Software, Inc., United States-500.288, version 5.0). Results are presented as means±SEM or SD of measurements made on 6 mice per group, with statistical significance determined by two-way ANOVA, comparing each group to the control (“Model”) group. […]

IL-1ß = test: MSU-induced IL-1ß in knee joint tissue (multiplex microassay); format: in vivo, mouse; conditions: 2,4-D 100 mg/kg, CLC 1 mg/kg, DEX 0.5 mg/kg
Method: as §1, §2, §3, §4

IL-6 = test: MSU-induced IL-6 in knee joint tissue (multiplex microassay); format: in vivo, mouse; conditions: 2,4-D 100 mg/kg, CLC 1 mg/kg, DEX 0.5 mg/kg
Method: as §1, §2, §3, §4

[4] = system: MSU-induced knee joint edema; test: MSU-induced knee joint edema in mice; format: in vivo, mouse; conditions: 20 h; high dose i.p.: 2,4-D 100 mg/kg, CLC 1 mg/kg, DEX 0.5 mg/kg
Method: as §1, with “2,4-D, isolated and purified from Chloranthus spicatus (purity≥98%), was purchased from BOC Science (Shirley, NY). Colchicine (CLC) (purity≥96%) and dexamethasone (DEX) (purity≥98%) were purchased from Sigma. Mice” for “Mice”
Preparation of monosodium urate crystal (MSU). MSU crystals were prepared as described previously (Ruiz-Miyazawa et al., 2017). Briefly, 800 mg of monosodium urate was dissolved in 155 ml of boiling milli-Q water containing 2N NaOH. After pH adjustment to 8.9, the solution was cooled gradually by stirring at room temperature and crystallized overnight at 4° C. Crystals were collected, and centrifuged at 3,000×g for 2 min at 4° C. The crystals were evaporated and sterilized by heating at 180° C. for 2 h and stored in a sterile environment until use. The load of endotoxin present in the MSU crystals was determined using a ToxinSensor^TM Single Test Kit (GenScript).
as §2
Evaluation of Knee Joint Edema. Knee joint edema was determined with a caliper (Mitutoyo) before (zero time), and after the intra-articular injection with MSU at the times indicated. Knee joint edema was determined for each mouse by the difference between the time points indicated on figures and the zero time (Ruiz-Miyazawa et al, 2017). The edema value is represented as Amm/joint.
Statistical Analysis. Data were analyzed using GraphPad Prism statistical software (GraphPad Software, Inc., United States-500.288, version 5.0). Results are presented as means±SEM or SD of measurements made on 6 mice per group, with statistical significance determined by two-way ANOVA, comparing each group to the control (“Model”) group. For in vitro experiments, microassays were performed in quadruplicate. p<0.05 was considered significant (*p<0.05, **p<0.01, ***p<0.001).

[5] = LPS-stimulated THP-1, Example 8

CC(=O)Oc1ccccc1C(=O)O [Aspirin, reference compound]
change of IL-23 production/release in supernatant (IL-23 [1]; [5]): no significant change

CC(C)Cc1ccc(C(C)C(=O)O)cc1 (centres unmarked) [Ibuprofen, reference compound]
reduction of IL-23 release in supernatant (IL-23 [1]; [5]): 20-25%

COc1cc(O)c(OC)c(O)c1C(=O)/C=C/c1ccccc1 [naturally isolated 2,4-D, 2′,4′-dihydroxy-3′,6′-dimethoxychalcone]
IC50 (IL-23 [2]; Homo sapiens, read-out: IC50 of inhibition of IL-23): ~2100 nM

COc1cc(O)cc(OC)c1C(=O)C=Cc1ccccc1 [HMC, 4′-hydroxy-2′6′-dimethoxychalcone]
inhibition of IL-23 production (IL-23 [2]): do not inhibit

Hydroxysafflor yellow A [HYA]
inhibition of IL-23 production (IL-23 [2]): do not inhibit

COc1cc2c(c(OC)c1OC)-c1ccc(OC)c(=O)cc1[C@@H](NC(C)=O)CC2 [CLC, Colchicine]
decrease of TNF-alpha in knee joint tissue (TNF-alpha): no effect | increase of the expression of IL-10 in knee joint tissue (IL-10): 1.5 fold | reduction of MSU-induced leukocyte recruitment [3]: 1.6 fold | decrease of IL-1ß in knee joint tissue (IL-1ß): no effect | decrease of IL-6 in knee joint tissue (IL-6): no effect | reduction of MSU-induced knee joint edema [4]: 32.6%

COc1cc(O)c(OC)c(O)c1C(=O)/C=C/c1ccccc1 [(E) isomer, 2′,4′-dihydroxy-3′,6′-dimethoxychalcone]
activity of (E) isomer relative to (Z) isomer (IL-23 [1]): 5 fold | inhibition of IL-23, (E) isomer compared with (Z) isomer (IL-23 [1]; LPS-stimulated THP-1 cell culture): greater

CC(C)=CCc1c(O)ccc(C(=O)/C=C/c2ccc(O)cc2)c1O [IBC, Isobavachalcone]
inhibition of IL-23 production (IL-23 [2]): do not inhibit
